Data reported in patent US20260053798A1, “COMBINATION THERAPY FOR A RAS RELATED DISEASE OR DISORDER” (Revolution Medicines, Inc., priority 2023, published 2026).

Key:
[1] = system: PI3K activity; assay: PI3K activity in KRAS wild-type and KRAS^G12X mutant lines; assay type: cell-based; settings: for PI3K activity: FIG. 5 left
[2] = system: PIP3 levels; assay: PIP3 levels in KRAS-mutant PDAC lines; assay type: cell-based; settings: KRAS^G12D-mutant PDAC lines; FIG. 5 right
[3] = system: pERK (MAPK signaling); assay: pERK (MAPK signaling) levels in KRAS mutant cell lines; assay type: cell-based; settings: FIG. 6
[4] = system: PDAC KRAS^AMP models; assay: RMC-6236 plus chemotherapy in PDAC KRAS^AMP models; assay type: in vivo; settings: FIG. 4

Structure (SMILES) | PI3K activity ([1]; KRAS^G12C) | PI3K activity ([1]; KRAS^G12D) | PI3K activity ([1]; KRAS^G12R line) | PI3K and MAPK activity (summary statement) ([1]; KRAS^G12R lines) | PI3K activity ([1]; KRAS^G12V) | PI3K activity ([1]; KRAS^WT) | PI3K and MAPK activity (summary statement) ([1]; isogenic and mutant KRAS^G12D lines) | PIP3 levels [2] | levels of pERK (MAPK signaling) ([3]; KRAS^G12D mutant cell lines) | levels of pERK (MAPK signaling) ([3]; KRAS^G12R mutant cell lines) | activity and durability in combination ([4]; combined with FOLFIRINOX) | activity and durability in combination ([4]; combined with GEM+Abraxane) | monotherapy activity versus chemotherapy ([4]; monotherapy, EGFR-mutant PDAC (so in the source))
CCn1c(-c2cc(N3CCN(C4CC4)CC3)cnc2[C@H](C)OC)c2c3cc(ccc31)-c1csc(n1)C[C@H](NC(=O)C1[C@H]3COC[C@@H]13)C(=O)N1CCC[C@H](N1)C(=O)OCC(C)(C)C2 (stereo partly shown) [RMC-7977] | moderate inhibitory effect | completely suppressed | no effect | not | moderate inhibitory effect | completely suppressed | suppresses both PI3K and MAPK activity | suppresses | decreased | decreased | – | – | –
CCn1c(-c2cc(N3CCN(C)CC3)cnc2[C@H](C)OC)c2c3cc(ccc31)-c1csc(n1)C[C@H](NC(=O)[C@H]1C[C@@H]1C)C(=O)N1CCC[C@H](N1)C(=O)OCC(C)(C)C2 [RMC-6236] | – | – | – | – | – | – | – | – | – | – | combination benefit resulting in increased activity and durability | combination benefit resulting in increased activity and durability | comparable activity against EGFR-mutant PDAC as chemotherapy
